Experimental data from US11448563B2, “Force measurement method, force measurement device, force measurement system, force measurement program, and recording medium” (Tohoku University, priority 2017, dated 2022).

System: motor proteins
Experiment: Frequency distribution of the fluctuation value χ of cargo transport, measured with the force measurement device after adding Ciliobrevin to cells
Format: cell-based
Settings: melanocytes; for number of clusters into which the frequency distribution of the fluctuation value χ is classified: four clusters without Ciliobrevin
Description: The dish after stain was placed on a heating plate (CU-201, Live Cell Instrument), and the stained melanin vesicles in melanocytes were observed under a dark-field microscope (IX71, Olympus) while the temperature was maintained at 37° C. A video was captured using an EMCCD camera (LucaS (Andor)) with a 100× objective lens (UPlanFL 100x/1.3, Plympus) at 98 frames per second. Time course data of the position of the center of gravity of melanin vesicles was calculated from the video using ImageJ (Rasband, 1997).
FIG. 15A, FIG. 15B and FIG. 15C are diagrams showing specific results showing that the fact that the frequency distribution of the fluctuation value χ changes according to addition of Ciliobrevin which is a reagent that inhibits a function of motor proteins into melanocytes is clear from measurement of χ using the force measurement device 1 of the embodiment.

Question: How did the “change in the number of clusters of the fluctuation value χ with the amount of Ciliobrevin added” value (comparison of 0, 20 and 40 μM (FIG. 15A-15C)) turn out when Ciliobrevin was run?
Answer: number of clusters decreases as the amount of Ciliobrevin added increases

Question: What about the “number of clusters into which the frequency distribution of the fluctuation value χ is classified” value (concentration of Ciliobrevin in the cell culture medium 20 μM (FIG. 15B)) of the same substance?
Answer: two clusters

Question: What about the “number of clusters into which the frequency distribution of the fluctuation value χ is classified” value (concentration of Ciliobrevin in the cell culture medium 40 μM (FIG. 15C)) of the same substance?
Answer: one cluster
